Seven compounds from EP4685142A1, “TRIAZINE COMPOUND AND USE THEREOF” (Chengdu Zenitar Biomedical Technology Co., Ltd., priority 2023, dated 2024) can be followed below.

The target of one data set is T1, NLRP3 inflammasome (Homo sapiens, UniProt Q96P20).
T1 construct: host or cells: THP-1 cells
In words: Inhibitory activity of NLRP3 inflammasome in human monocytes (THP-1 cells, LPS + Nigericin, IL-1β ELISA). The format is cell-based. On the procedure: 1. Determination of inhibitory activity of NLRP3 inflammasome in human monocytes
Experimental method: THP-1 cells were cultured in RPMI culture medium containing PMA (10 µM), and then inoculated in 48-well plates at a density of 2×10^5 cells/mL, the plates were incubated overnight in a 5% CO2 incubator at 37°C. The next day, the above culture medium was replaced with Opti-MEM culture medium containing 1 µg/mL LPS. After 3 hours, the grown cells were simulated for 40 min with a drug, and then simulated for 40 min with Nigericin (10 µM), and a cell supernatant was harvested for ELISA analysis.
Table 2 Inhibitory activity of NLRP3 inflammasome
On the technique in general: In an ELISA, binding on a coated surface is turned into a signal by an enzyme label.

Data set [1] in a line: Pharmacokinetic evaluation in Balb/c mice. The format is in vivo. To be noted: mouse, in vivo, 5 mg/kg. The text has this: 4. Pharmacokinetic evaluation of compounds in Balb/c mice
Experimental purpose: to understand pharmacokinetic properties of the compounds.
Experimental basis: Technical Guidelines for Nonclinical Pharmacokinetic Studies of Chemical Drugs, 2014.
Experimental protocol: the pharmacokinetic properties of the compounds were investigated via intravenous administration and intragastric administration in Balb/c mice.
The blood drug concentration was quantitatively analyzed by LC-MS/MS, and pharmacokinetic parameters were calculated, such as peak concentration (Cmax), area under the concentration-time curve (AUC(0-t)), half-life (T1/2), clearance (CL), volume of distribution at steady state (Vdss), and bioavailability (F).
The results of pharmacokinetic evaluation are shown in Table 5 below: Table 5 Pharmacokinetic test results of compounds in Balb/c mice

In data set [2] the target is T2, hERG potassium ion channel (Homo sapiens, UniProt Q12809).
T2 sequence (Q12809 whole entry): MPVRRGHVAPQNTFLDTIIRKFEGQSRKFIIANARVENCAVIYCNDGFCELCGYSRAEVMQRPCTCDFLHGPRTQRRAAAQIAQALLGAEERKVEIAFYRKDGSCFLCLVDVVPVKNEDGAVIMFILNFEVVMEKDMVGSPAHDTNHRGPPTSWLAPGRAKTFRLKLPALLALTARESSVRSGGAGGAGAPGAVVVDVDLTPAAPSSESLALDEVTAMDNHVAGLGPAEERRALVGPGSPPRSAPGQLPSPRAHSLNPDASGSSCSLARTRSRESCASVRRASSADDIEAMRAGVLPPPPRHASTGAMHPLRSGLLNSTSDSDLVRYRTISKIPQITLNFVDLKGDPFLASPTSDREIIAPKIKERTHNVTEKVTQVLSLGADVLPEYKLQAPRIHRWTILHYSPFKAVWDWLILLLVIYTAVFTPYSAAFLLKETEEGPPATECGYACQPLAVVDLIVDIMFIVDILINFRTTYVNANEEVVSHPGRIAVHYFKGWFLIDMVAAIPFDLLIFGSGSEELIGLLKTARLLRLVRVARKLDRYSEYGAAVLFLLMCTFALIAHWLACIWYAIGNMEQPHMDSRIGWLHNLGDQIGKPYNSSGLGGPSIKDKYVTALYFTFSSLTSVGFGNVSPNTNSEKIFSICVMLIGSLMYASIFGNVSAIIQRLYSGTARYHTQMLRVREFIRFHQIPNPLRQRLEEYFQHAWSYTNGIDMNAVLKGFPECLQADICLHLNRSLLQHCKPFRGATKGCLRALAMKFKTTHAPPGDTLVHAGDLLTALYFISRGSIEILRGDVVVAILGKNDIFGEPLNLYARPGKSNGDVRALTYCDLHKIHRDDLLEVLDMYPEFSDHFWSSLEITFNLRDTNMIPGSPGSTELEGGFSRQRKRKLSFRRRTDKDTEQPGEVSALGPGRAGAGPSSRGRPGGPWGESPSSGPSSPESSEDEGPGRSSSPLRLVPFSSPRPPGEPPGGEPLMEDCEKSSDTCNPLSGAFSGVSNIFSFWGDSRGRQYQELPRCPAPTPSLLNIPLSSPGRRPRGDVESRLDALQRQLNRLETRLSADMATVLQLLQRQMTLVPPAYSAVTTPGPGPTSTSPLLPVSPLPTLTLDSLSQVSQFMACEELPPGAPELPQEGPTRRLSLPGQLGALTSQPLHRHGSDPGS
Data set [3] can be described thus: In vivo distribution of cerebrospinal fluid and plasma. To be noted: for Cerebrospinal fluid / Plasma: intravenous 5 mg/kg, n=1; for concentration at 0.25 h / concentration at 2 h: male, iv, 5 mg/kg.
Method: Evaluation of in vivo distribution of cerebrospinal fluid and plasma after compound administration
Experimental procedure: the compound was weighed, followed by adding a small amount of DMSO and then adding a sodium chloride solution for injection, to prepare a 5 mg·mL^-1 compound solution for administration. […] Standard curve range: 1-1000 ng·mL^-1.
In data set [4] the target is T2, hERG potassium ion channel. Nature of the data set: Inhibition of hERG potassium ion channel (CHO cells stably expressing hERG, Qpatch). For orientation: hERG is a cardiac potassium channel; its block is linked to QT prolongation.
In the next data set the test system is LPS-induced mice. Nature of the data set: LPS-induced mouse model, survival. In kind it is in vivo, Balb/c mice. The note with it: for 72h Survival rate: 25 mg/kg oral, 1 h before 10 mg/kg LPS i.p.; for survival status of mice (mice alive) 12h / survival status of mice (mice alive) 24h / survival status of mice (mice alive) 36h / survival status of mice (mice alive) 48h / survival status of mice (mice alive) 72h: 25 mg/kg.

Data set [5] can be described thus: In vivo brain-to-plasma ratio in mice. To be noted: for Plasma / Brain: male mice, oral 10 mg/kg; for Kp at 1 h / Kp at 6 h: mouse, brain, po, 10 mg/kg.
Method: Evaluation of in vivo brain-to-plasma ratio of compound
Experimental purpose: to obtain the brain-to-plasma ratio of the compound
Experimental protocol: the brain-to-plasma ratio of the compound was investigated by monitoring the content of the compound in mouse brain and plasma.
Experimental procedure: the compound was weighed, followed by adding a small amount of DMSO and adding a sodium chloride solution for injection, to prepare a 10 mg · mL^-1 compound solution for administration. Male mice were orally administered at 10 mg · kg^-1, and whole plasma and whole brain tissue were sampled at 1 h and 6 h after administration (n=3). […] A centrifuge tube was weighed as M1, the centrifuge tube containing the whole brain tissue was weighed as M2, the centrifuge tube containing water for homogenization was weighed as M3, and the centrifuge tube after the removal of 30 µL homogenate was weighed as M4.
Standard curve range: 10-10,000 ng·mL^-1. Content of drug in brain = measured value × 0.03 × (M3−M1)/[(M2−M1)×(M3−M4)].
The mark [6] stands for this setting: PO, Balb/c mice, read-out: AUC(0-t).
Where [7] appears, read: PO, Balb/c mice, read-out: Cmax.
Where [8] appears, read: PO, Balb/c mice, read-out: T1/2 (converted).
[9] abbreviates: THP-1 cells, PMA, LPS 1 µg/mL 3 h, drug 40 min, Nigericin 10 µM 40 min, IL-1β ELISA, read-out: IC50.

Like-named read-outs stand apart in the source and are kept apart here.

T1 sequence (Q96P20 whole entry): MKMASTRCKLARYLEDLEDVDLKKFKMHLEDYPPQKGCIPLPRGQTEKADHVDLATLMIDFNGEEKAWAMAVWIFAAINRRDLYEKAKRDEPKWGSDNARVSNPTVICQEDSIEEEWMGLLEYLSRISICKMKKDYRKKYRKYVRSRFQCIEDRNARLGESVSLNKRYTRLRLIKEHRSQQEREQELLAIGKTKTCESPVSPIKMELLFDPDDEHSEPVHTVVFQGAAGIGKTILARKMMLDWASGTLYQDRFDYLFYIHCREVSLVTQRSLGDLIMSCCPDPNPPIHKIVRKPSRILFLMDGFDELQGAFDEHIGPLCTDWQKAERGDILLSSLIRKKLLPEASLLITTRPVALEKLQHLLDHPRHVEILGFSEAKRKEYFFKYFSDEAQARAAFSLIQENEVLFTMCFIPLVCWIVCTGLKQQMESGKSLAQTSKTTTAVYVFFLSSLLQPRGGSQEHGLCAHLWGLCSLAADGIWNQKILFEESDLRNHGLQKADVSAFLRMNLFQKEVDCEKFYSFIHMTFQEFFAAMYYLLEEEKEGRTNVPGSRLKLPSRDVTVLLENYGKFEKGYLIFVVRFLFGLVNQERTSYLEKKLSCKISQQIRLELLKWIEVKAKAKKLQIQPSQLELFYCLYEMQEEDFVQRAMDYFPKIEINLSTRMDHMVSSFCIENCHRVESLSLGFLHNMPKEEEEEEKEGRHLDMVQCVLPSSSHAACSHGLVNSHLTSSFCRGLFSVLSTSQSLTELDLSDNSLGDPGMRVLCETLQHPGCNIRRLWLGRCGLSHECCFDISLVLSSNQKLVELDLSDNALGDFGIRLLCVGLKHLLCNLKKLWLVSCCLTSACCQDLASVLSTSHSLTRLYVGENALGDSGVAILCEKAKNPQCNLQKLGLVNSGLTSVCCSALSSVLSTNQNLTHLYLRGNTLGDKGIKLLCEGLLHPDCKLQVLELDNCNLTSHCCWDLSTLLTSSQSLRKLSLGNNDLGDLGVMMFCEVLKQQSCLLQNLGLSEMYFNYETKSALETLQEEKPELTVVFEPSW

A word on the IC50: it is the midpoint of a concentration-inhibition curve. By AUC(0-t) is commonly meant the area under the concentration-time curve up to a stated or last time point. One may read the Cmax as the peak of the concentration-time curve. Turning to `CCn1c(-c2ccc3sccc3c2O)nnc(N[C@@H]2C[C@@H](F)CN(C)C2)c1=O` [Compound 43, 4-ethyl-6-(((3R,5R)-5-fluoro-1-methylpiperidin-3-yl)amino)-3-(4-hydroxybenzo[b]thiophen-5-yl)-1,2,4-triazin-5(4H)-ketone], the IC50 on NLRP3 inflammasome is 5.66 nM. The AUC(0-t) in data set [1] (setting [6]) was determined as 15700 ng·h/mL. In addition, the Cmax in data set [1] (setting [7]) was determined as 5070 ng/mL. Besides, the half-life in data set [1] (setting [8]) is 2.25 h. Further, the “inhibitory effects on the hERG potassium ion channel (conclusion in words)” value (from here on “inhibitory effects”) in data set [2] was “Conclusion: compounds 3, 4, 5, 9, 16, 17, 24, 30, 40, 41, 42, 43, 54 and others have weak inhibitory effects on the hERG potassium ion channel, having weaker inhibitory effect than the reference compound Ref-1”. Besides, in data set [3] (0.25h), the Cerebrospinal fluid is recorded as 151 ng/g and the Plasma stood at 6797 ng/mL. Further, in data set [3] (2h), the Cerebrospinal fluid worked out at 40 ng/g and the Plasma amounted to 1911 ng/mL. In addition, the “distribution concentrations in cerebrospinal fluid / brain penetration potential (conclusion in words)” value in data set [3] (mouse, in vivo) is “Conclusion: some compounds of the present invention have good brain penetration potential, and particularly, compounds 40, 43 and others have high distribution concentrations in cerebrospinal fluid”. Also, the “20 uM Inhibition ratio” value in data set [4] is 14.23%.
For the compound `Cn1c(-c2ccc3sccc3c2O)nnc(N[C@@H]2CCCC[C@H]2O)c1=O` [Compound 30, 3-(4-hydroxybenzo[b]thiophen-5-yl)-6-(((1R,2R)-2-hydroxycyclohexyl)amino)-4-methyl-1,2,4-triazin-5(4H)-ketone.], the IC50 at NLRP3 inflammasome (setting [9]) amounted to 1.97 nM. Also, in data set [1] (male, Balb/c, po), the AUC(0-t) is 4380 ng·h/mL, the concentration peaked (Cmax) at 9810 ng/mL and the half-life is 0.19 h. Further, the “inhibitory effects” value in data set [2] (human) was “Conclusion: compounds 3, 4, 5, 9, 16, 17, 24, 30, 40, 41, 42, 43, 54 and others have weak inhibitory effects on the hERG potassium ion channel, having weaker inhibitory effect than the reference compound Ref-1”. The “20 uM Inhibition ratio” value in data set [4] stood at 1.70%.
Take `Cn1c(-c2ccc3sccc3c2O)nnc(N[C@@H]2CCCN(C3CC3)C2)c1=O` [Compound 16, (R)-6-((1-cyclopropylpiperidin-3-yl)amino)-3-(4-hydroxybenzo[b]thiophen-5-yl)-4-methyl-1,2,4-triazin-5(4H)-ketone]: the IC50 on NLRP3 inflammasome (setting [9]) came to 1.62 nM. In addition, the “inhibitory effects” value in data set [2] (human) is “Conclusion: compounds 3, 4, 5, 9, 16, 17, 24, 30, 40, 41, 42, 43, 54 and others have weak inhibitory effects on the hERG potassium ion channel, having weaker inhibitory effect than the reference compound Ref-1”. The “20 uM Inhibition ratio” value in data set [4] is 35.63%.
On to `CCN1C[C@H](F)C[C@@H](Nc2nnc(-c3ccc4sccc4c3O)n(CC)c2=O)C1` [Compound 42, 4-ethyl-6-(((3R,5R)-1-ethyl-5-fluoropiperidin-3-yl)amino)-3-(4-hydroxybenzo[b]thiophen-5-y 1)-1,2,4-triazin-5(4H)-ketone], for which, at NLRP3 inflammasome (setting [9]), the IC50 stood at 4.76 nM. Also, in data set [1] (male, Balb/c, po), the AUC(0-t) is 2500 ng·h/mL, the Cmax came out at 2700 ng/mL and the half-life is 1.61 h. Moreover, the “inhibitory effects” value in data set [2] (human) was “Conclusion: compounds 3, 4, 5, 9, 16, 17, 24, 30, 40, 41, 42, 43, 54 and others have weak inhibitory effects on the hERG potassium ion channel, having weaker inhibitory effect than the reference compound Ref-1”. For the same compound, in data set [3] (mouse, cerebrospinal fluid), the concentration at 0.25 h stood at 35 ng/g and the concentration at 2 h came to 1 ng/g. In data set [3] (mouse, plasma), the concentration at 0.25 h worked out at 965 ng/mL and the concentration at 2 h came to 46 ng/mL. Further, the “20 uM Inhibition ratio” value in data set [4] is recorded as 14.98%.
What is called Kp is the ratio of the level in a tissue or fluid to that in plasma or blood. For the compound `Cn1c(-c2ccc3sccc3c2O)nnc(N[C@@H]2CCCN(CCO)C2)c1=O` [Compound 9, (R)-3-(4-hydroxybenzo[b]thiophen-5-yl)-6-((1-(2-hydroxyethyl)piperidin-3-yl)amino)-4-methyl-1,2,4-triazin-5(4H)-ketone], the IC50 at NLRP3 inflammasome was 3.95 nM. The AUC(0-t) in data set [1] (setting [6]) was 4400 ng·h/mL. For the same compound, in data set [1] (setting [7]), the Cmax was determined as 2280 ng/mL. Moreover, in data set [1] (setting [8]), the half-life was 0.85 h. Also, the “72h Survival rate” value in the data set with LPS-induced mice came out at 70%. For the same compound, in the data set on LPS-induced mice (First cage (5 mice)), the “survival status of mice (mice alive) 12h” value is recorded as 5, the “survival status of mice (mice alive) 24h” value amounted to 5, the “survival status of mice (mice alive) 36h” value is 5 and the “survival status of mice (mice alive) 48h” value is reported as 5. In addition, the “survival status of mice (mice alive) 72h” value in the data set with LPS-induced mice (First cage (5 mice)) turned out to be 3. Besides, in the data set with LPS-induced mice (Second cage (5 mice)), the “survival status of mice (mice alive) 12h” value is 5, the “survival status of mice (mice alive) 24h” value was found to be 5, the “survival status of mice (mice alive) 36h” value is listed as 5 and the “survival status of mice (mice alive) 48h” value turned out to be 5. Besides, the “survival status of mice (mice alive) 72h” value in the data set on LPS-induced mice (Second cage (5 mice)) came out at 4. Besides, the “inhibitory effects” value in data set [2] is “Conclusion: compounds 3, 4, 5, 9, 16, 17, 24, 30, 40, 41, 42, 43, 54 and others have weak inhibitory effects on the hERG potassium ion channel, having weaker inhibitory effect than the reference compound Ref-1”. Also, the Plasma in data set [5] (1 h) was 1830 ng/mL. Moreover, the Plasma in data set [5] (6 h) is 46 ng/mL. Further, in data set [5], the Kp at 1 h was determined as 0.04 and the concentration ratio (Kp) at 6 h is 0.46. The “20 uM Inhibition ratio” value in data set [4] is listed as 8.83%.
For the compound `CCn1c(-c2ccc3sccc3c2O)nnc(N[C@@H]2CCCN(C)C2)c1=O` [Compound 17, (R)-4-ethyl-3-(4-hydroxybenzo[b]thiophen-5-yl)-6-[(1-methylpiperidin-3-yl)amino]-1,2,4-tria zin-5(4H)-ketone], the IC50 on NLRP3 inflammasome was found to be 3.19 nM. Besides, the area under the curve AUC(0-t) in data set [1] (setting [6]) amounted to 17800 ng·h/mL. Besides, the Cmax in data set [1] (setting [7]) is 1850 ng/mL. Also, the half-life in data set [1] (setting [8]) is 4.2 h. For the same compound, in data set [2], the “inhibitory effects” value is “Conclusion: compounds 3, 4, 5, 9, 16, 17, 24, 30, 40, 41, 42, 43, 54 and others have weak inhibitory effects on the hERG potassium ion channel, having weaker inhibitory effect than the reference compound Ref-1”. Further, in data set [5] (1 h), the Brain is 745 ng/g and the Plasma was determined as 5243 ng/mL. Further, in data set [5] (6 h), the Brain came out at 290 ng/g and the Plasma amounted to 1872 ng/mL. In addition, in data set [5], the Kp at 1 h came to 0.14 and the Kp at 6 h turned out to be 0.16. For the same compound, in data set [3] (0.25h), the Cerebrospinal fluid turned out to be 47 ng/g and the Plasma is 713 ng/mL. Also, in data set [3] (2h), the Cerebrospinal fluid was found to be 25 ng/g and the Plasma was found to be 590 ng/mL. The “20 uM Inhibition ratio” value in data set [4] was 22.83%.
As to `CCN1C[C@H](F)C[C@@H](Nc2nnc(-c3ccc4sccc4c3O)n(C)c2=O)C1` [Compound 41, 6-(((3R,5R)-1-ethyl-5-fluoropiperidin-3-yl)amino)-3-(4-hydroxybenzo[b]thiophen-5-yl)-4-me thyl-1,2,4-triazin-5(4H)-ketone], the half-inhibitory concentration (IC50) at NLRP3 inflammasome amounted to 2.02 nM. Besides, the “72h Survival rate” value in the data set with LPS-induced mice was determined as 100%. Moreover, in the data set on LPS-induced mice (First cage (5 mice)), the “survival status of mice (mice alive) 12h” value is on record as 5, the “survival status of mice (mice alive) 24h” value worked out at 5, the “survival status of mice (mice alive) 36h” value was 5 and the “survival status of mice (mice alive) 48h” value is listed as 5. Besides, the “survival status of mice (mice alive) 72h” value in the data set on LPS-induced mice (First cage (5 mice)) is given as 5. Moreover, in the data set with LPS-induced mice (Second cage (5 mice)), the “survival status of mice (mice alive) 12h” value is recorded as 5, the “survival status of mice (mice alive) 24h” value came to 5, the “survival status of mice (mice alive) 36h” value was found to be 5 and the “survival status of mice (mice alive) 48h” value came to 5. In the data set on LPS-induced mice (Second cage (5 mice)), the “survival status of mice (mice alive) 72h” value stood at 5. For the same compound, the “inhibitory effects” value in data set [2] is “Conclusion: compounds 3, 4, 5, 9, 16, 17, 24, 30, 40, 41, 42, 43, 54 and others have weak inhibitory effects on the hERG potassium ion channel, having weaker inhibitory effect than the reference compound Ref-1”. In data set [3] (0.25h), this compound gave a Cerebrospinal fluid of 67 ng/g and a Plasma of 668 ng/mL. In addition, in data set [3] (2h), the Cerebrospinal fluid turned out to be 1 ng/g and the Plasma is given as 38 ng/mL. Moreover, the “20 uM Inhibition ratio” value in data set [4] amounted to 13.31%.
